Legend:
human mTOR = target: T1, human mTOR (Homo sapiens, UniProt P42345); assay: mTOR Kinase Activity Inhibition Test; format: biochemical; conditions: His-tagged mTOR (1362C), biotinylated peptide substrate, ATP, 3 hours at room temperature, fluorescence resonance energy transfer 665 nm/620 nm; read-out: IC50 value of mTOR enzyme inhibitory activity
T1 construct: the portion corresponding to 1362-2549aa at the C terminus of human mTOR; made in house
Method: The kinase activity of mTOR was measured in the presence or absence of a test compound. A substrate peptide is phosphorylated by mTOR kinase activity. A complex of streptavidin-XL665 and anti-phosphorylated S6K (Thr389) antibody/anti-mouse IgG-cryptate binds to this phosphorylated peptide. At this moment, fluorescence resonance energy transfer takes place from antibody/anti-mouse IgG-cryptate exposed to light excitation to XL665, which results in emission of fluorescence at 665 nm. The mTOR kinase activity is detected using this principle.
(1) Sample Preparation and Enzymatic Reaction
An HEK293 cell line that constitutively expresses a His tag fused human mTOR has been established. His tag was introduced into the N terminus of the portion corresponding to 1362-2549aa at the C terminus of human mTOR. Cell lysate was prepared from this HEK293 cell line constitutively expressing His-tagged mTOR (1362C), and His-tagged mTOR (1362C) was purified using the His tag affinity according to a conventional method.
Next, an mTOR enzyme solution was prepared, which contains the aforementioned His-tagged mTOR (1362C) enzyme, 8 μg/mL of biotinylated peptide (Biotin-Ahx-[…]-amide (Sigma)), as well as 50 mM HEPES (pH 7.5), 20 mM MnCl2, 1 mg/ml BSA, an appropriate amount of protease inhibitor cocktail (Complete EDTA free, Roche), 100 ng/ml Calyculin A, 4 μg/ml Cantharidin and 10 mM DTT as other components.
The test compound was dissolved in DMSO, and serial dilutions were prepared with 20 μM ATP solution (50 mM HEPES (pH 7.5), 20 μM ATP) to achieve concentrations necessary for the assay. 5 μL of this compound solution was applied to each well of a 384 well small volume white Greiner plate.
5 μL of mTOR enzyme solution was added to the aforementioned well containing the test compound. After mixing, the mixture was incubated at room temperature for 3 hours to carry out the enzymatic reaction.
The same operation was performed with a solution of DMSO in 20 μM ATP solution as a positive control and with a solution of DMSO in 50 mM HEPES (pH 7.5) as a negative control.
(2) Detection of Enzymatic Reaction
After the enzymatic reaction, 5 μl each of an europium solution (a solution of anti-mouse IgG-cryptate (SCETI Medical Labo K.K.) and anti-phosphorylated S6K (Thr389) antibody (Cell Signaling Technology Inc.) in 50 mM HEPES (pH 7.5), 100 mM EDTA and 1.5 mg/ml BSA) and an XL665 solution (a solution of streptavidin-XL665 (SCETI Medical Labo K.K.) in 50 mM HEPES (pH 7.5), 100 mM EDTA, 0.8 M KF and 1.5 mg/ml BSA) were added in this order and then mixed. The mixture was incubated at 4° C. overnight. On the following day, the mixture was returned to room temperature and irradiated with excitation light at 337 nm. Fluorescence at 620 nm and fluorescence at 665 nm were measured with RUBYstar (BMG).
The mTOR inhibitory activity (%) was calculated using the ratio calculated from the measured values as an index of enzyme activity. Here, the ratio was calculated from the following formula (I). Ratio=10000×665 nm fluorescence value/620 nm fluorescence value (1)
The mTOR enzyme inhibitory activity (%) was calculated from the following formula (2). mTOR enzyme inhibitory activity (%)=100×[(P−S)/(P−N)] (2)
P: Ratio in well of positive control
N: Ratio in well of negative control
S: Ratio in well containing test compound
Further, an optimal curve was calculated based upon each concentration of the test compound prepared in serial dilutions and the mTOR enzyme inhibitory activity (%) at that concentration. The concentration at which 50% inhibition occurred was calculated as the IC50 value of mTOR enzyme inhibitory activity.

WM-266-4 cells = assay: Cell Proliferation Inhibitory Test; format: cell-based; conditions: Homo sapiens, 72 h, cultured three days with test compound, MTT, read-out: 50% cell proliferation inhibitory activity (GI50 value)
Method: WM-266-4 cells (ATCC, USA) were seeded in a 96-well plate and cultured overnight. Then, serial dilutions of the sample containing the test compound were prepared, added to each well and cultured another three days. Thereafter, the cell amount in each well was measured by MTT (MOSMANN, T., Rapid colorimetric assay for cellular growth and survival: application to proliferation and cytotoxicity assays. J. Immunol. Methods, 65, 55-63 (1983)). The 50% cell proliferation inhibitory activity (GI50 value) was calculated from the following formula (3). 100×[(T−T0)/(C−T0)]=50 (3)
Here, T represents values from the test compound added wells, C represents the value from the well to which the test compound was not added for three days, and To represents an initial measured value at the time of addition of the test compound.

T1 sequence (P42345 1362-2549): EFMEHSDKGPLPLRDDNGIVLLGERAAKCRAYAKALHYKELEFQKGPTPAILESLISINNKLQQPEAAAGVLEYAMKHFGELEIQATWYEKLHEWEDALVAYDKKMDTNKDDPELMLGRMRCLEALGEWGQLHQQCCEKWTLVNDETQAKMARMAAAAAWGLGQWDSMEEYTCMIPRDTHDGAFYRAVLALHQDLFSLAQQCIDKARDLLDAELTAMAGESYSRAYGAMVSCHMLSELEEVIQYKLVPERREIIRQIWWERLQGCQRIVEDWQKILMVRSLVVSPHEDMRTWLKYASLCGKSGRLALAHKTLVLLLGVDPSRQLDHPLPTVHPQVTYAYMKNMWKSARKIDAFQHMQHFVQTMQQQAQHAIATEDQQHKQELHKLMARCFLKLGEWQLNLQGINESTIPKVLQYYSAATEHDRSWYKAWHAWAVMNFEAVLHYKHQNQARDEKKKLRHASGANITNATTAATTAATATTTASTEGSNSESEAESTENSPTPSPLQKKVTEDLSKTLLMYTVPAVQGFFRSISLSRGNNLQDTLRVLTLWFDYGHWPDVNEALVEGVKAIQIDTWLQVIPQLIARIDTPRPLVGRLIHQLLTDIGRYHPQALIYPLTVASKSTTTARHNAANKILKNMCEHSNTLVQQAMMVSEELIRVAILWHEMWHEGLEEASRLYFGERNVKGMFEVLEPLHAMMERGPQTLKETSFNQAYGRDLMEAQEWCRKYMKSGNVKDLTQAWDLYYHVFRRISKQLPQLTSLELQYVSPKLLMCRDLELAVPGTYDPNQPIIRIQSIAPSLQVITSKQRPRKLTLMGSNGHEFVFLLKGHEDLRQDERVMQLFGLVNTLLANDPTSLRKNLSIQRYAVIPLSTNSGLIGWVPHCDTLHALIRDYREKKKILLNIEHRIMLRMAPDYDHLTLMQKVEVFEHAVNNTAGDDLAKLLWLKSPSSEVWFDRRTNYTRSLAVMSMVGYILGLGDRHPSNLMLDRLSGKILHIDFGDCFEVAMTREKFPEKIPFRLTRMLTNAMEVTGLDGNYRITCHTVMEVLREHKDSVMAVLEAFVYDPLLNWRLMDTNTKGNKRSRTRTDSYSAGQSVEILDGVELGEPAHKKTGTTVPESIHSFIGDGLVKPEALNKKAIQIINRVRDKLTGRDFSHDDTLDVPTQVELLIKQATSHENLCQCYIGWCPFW

Row | Compound | IC50 (human mTOR) [nM] | GI50 (WM-266-4 cells) [nM]
1 | O=c1[nH]c2ncc(-c3cnc4[nH]ccc4c3)cc2n1C[C@@H]1COC[C@H]1O (racemic) [Example 61] | < 50 | < 3000
2 | O=c1[nH]c2ncc(-c3cnc4[nH]ccc4c3)cc2n1C[C@@H]1COC[C@@H]1O (racemic) [Example 62] | < 50 | < 3000
3 | CO[C@H]1COC[C@H]1Cn1c(=O)[nH]c2ncc(-c3cnc4[nH]ccc4c3)cc21 (racemic) [Example 63] | < 50 | < 3000
4 | CO[C@@H]1COC[C@H]1Cn1c(=O)[nH]c2ncc(-c3cnc4[nH]ccc4c3)cc21 (racemic) [Example 64, 1-{[trans-4-Methoxytetrahydrofuran-3-yl]methyl}-6-(1H-pyrrolo[2,3-b]pyridin-5-yl)-1,3-dihydro-2H-imidazo[4,5-b]pyridin-2-one] | < 50 | < 3000
5 | O=c1[nH]c2ncc(-c3cnc4[nH]ccc4c3)cc2n1C[C@H]1COC[C@@H](O)C1 (racemic) [Example 65, 1-{[cis-5-Hydroxytetrahydro-2H-pyran-3-yl]methyl}-6-(1H-pyrrolo[2,3-b]pyridin-5-yl)-1,3-dihydro-2H-imidazo[4,5-b]pyridin-2-one] | < 50 | < 3000
6 | O=c1[nH]c2ncc(-c3cnc4[nH]ccc4c3)cc2n1C[C@H]1COC[C@H](O)C1 (racemic) [Example 66, 1-{[trans-5-Hydroxytetrahydro-2H-pyran-3-yl]methyl}-6-(1H-pyrrolo[2,3-b]pyridin-5-yl)-1,3-dihydro-2H-imidazo[4,5-b]pyridin-2-one] | < 50 | –
7 | CO[C@@H]1COC[C@H](Cn2c(=O)[nH]c3ncc(-c4cnc5[nH]ccc5c4)cc32)C1 (racemic) [Example 67, 1-{[cis-5-Methoxytetrahydro-2H-pyran-3-yl]methyl}-6-(1H-pyrrolo[2,3-b]pyridin-5-yl)-1,3-dihydro-2H-imidazo[4,5-b]pyridin-2-one] | < 50 | < 3000
8 | CC1(C)CC(Cn2c(=O)[nH]c3ncc(-c4cnc5[nH]ccc5c4)cc32)CCO1 (racemic) [Example 70, 1-[(2,2-Dimethyltetrahydro-2H-pyran-4-yl)methyl]-6-(1H-pyrrolo[2,3-b]pyridin-5-yl)-1,3-dihydro-2H-imidazo[4,5-b]pyridin-2-one] | < 50 | < 3000
9 | O=c1[nH]c2ncc(-c3cncc4ccccc34)cc2n1CC1CCOCC1 [Example 11, 6-Isoquinolin-4-yl-1-(tetrahydro-2H-pyran-4-ylmethyl)-1,3-dihydro-2H-imidazo[4,5-b]pyridin-2-one] | 100 to 5000 | –
10 | O=c1[nH]c2ncc(-c3ccnc4ccccc34)cc2n1CC1CCOCC1 [Example 12, 6-Quinolin-4-yl-1-(tetrahydro-2H-pyran-4-ylmethyl)-1,3-dihydro-2H-imidazo[4,5-b]pyridin-2-one] | 100 to 5000 | –
11 | O=c1[nH]c2ncc(-c3cccc4ncccc34)cc2n1CC1CCOCC1 [Example 13, 6-Quinolin-5-yl-1-(tetrahydro-2H-pyran-4-ylmethyl)-1,3-dihydro-2H-imidazo[4,5-b]pyridin-2-one] | 100 to 5000 | –
12 | O=c1[nH]c2ncc(-c3cnc4[nH]cnc4c3)cc2n1CC1CCOCC1 [Example 22, 1-(Tetrahydro-2H-pyran-4-ylmethyl)-1,3-dihydro-2H,3′H-6,6′-biimidazo[4,5-b]pyridin-2-one] | < 50 | –
13 | O=C1Cc2cc(-c3cnc4[nH]c(=O)n(CC5CCOCC5)c4c3)cnc2N1 [Example 30, 6-(2-Oxo-2,3-dihydro-1H-pyrrolo[2,3-b]pyridin-5-yl)-1-(tetrahydro-2H-pyran-4-ylmethyl)-1,3-dihydro-2H-imidazo[4,5-b]pyridin-2-one] | 100 to 5000 | –
14 | O=C(O)c1cc2cc(-c3cnc4[nH]c(=O)n(CC5CCOCC5)c4c3)ccc2[nH]1 [Example 80, 5-[2-Oxo-1-(tetrahydro-2H-pyran-4-ylmethyl)-2,3-dihydro-1H-imidazo[4,5-b]pyridin-6-yl]-1H-indole-2-carboxylic acid] | 100 to 5000 | –

Now from value to compound, other results behind:

Row | IC50 (human mTOR) [nM] | Compound | GI50 (WM-266-4 cells) [nM]
15 | < 50 | CO[C@@H]1CCC[C@@H](Cn2c(=O)[nH]c3ncc(-c4cnc5[nH]ccc5c4)cc32)C1 (racemic) [Example 104, 1-{[trans-3-Methoxycyclohexyl]methyl}-6-(1H-pyrrolo[2,3-b]pyridin-5-yl)-1,3-dihydro-2H-imidazo[4,5-b]pyridin-2-one] | < 3000
16 | < 50 | CO[C@H]1CCC[C@@H](Cn2c(=O)[nH]c3ncc(-c4cnc5[nH]ccc5c4)cc32)C1 (racemic) [Example 105, 1-{[cis-3-Methoxycyclohexyl]methyl}-6-(1H-pyrrolo[2,3-b]pyridin-5-yl)-1,3-dihydro-2H-imidazo[4,5-b]pyridin-2-one] | < 3000
17 | < 50 | O=c1[nH]c2ncc(-c3cnc4[nH]ccc4c3)cc2n1C[C@H]1CC[C@H](O)CO1 (racemic) [Example 111, 2,6-Anhydro-1,3,4-trideoxy-1-[2-oxo-6-(1H-pyrrolo[2,3-b]pyridin-5-yl)-2,3-dihydro-1H-imidazo[4,5-b]pyridin-1-yl]-DL-erythro-hexitol] | < 3000
18 | < 50 | O=c1[nH]c2ncc(-c3cnc4[nH]ccc4c3)cc2n1C[C@H]1CC[C@@H](O)CO1 (racemic) [Example 112, 2,6-Anhydro-1,3,4-trideoxy-1-[2-oxo-6-(1H-pyrrolo[2,3-b]pyridin-5-yl)-2,3-dihydro-1H-imidazo[4,5-b]pyridin-1-yl]-DL-threo-hexitol] | < 3000
19 | < 50 | CO[C@@H]1CC[C@H](Cn2c(=O)[nH]c3ncc(-c4cnc5[nH]ccc5c4)cc32)OC1 (racemic) [Example 113, 2,6-Anhydro-1,3,4-trideoxy-5-O-methyl-1-[2-oxo-6-(1H-pyrrolo[2,3-b]pyridin-5-yl)-2,3-dihydro-1H-imidazo[4,5-b]pyridin-1-yl]-DL-threo-hexitol] | < 3000
20 | < 50 | CO[C@H]1CCO[C@@H](Cn2c(=O)[nH]c3ncc(-c4cnc5[nH]ccc5c4)cc32)C1 (racemic) [Example 114, 2,6-Anhydro-1,3,5-trideoxy-4-O-methyl-1-[2-oxo-6-(1H-pyrrolo[2,3-b]pyridin-5-yl)-2,3-dihydro-1H-imidazo[4,5-b]pyridin-1-yl]-DL-threo-hexitol] | < 3000
21 | < 50 | O=C1CCOCC1Cn1c(=O)[nH]c2ncc(-c3cnc4[nH]ccc4c3)cc21 (stereo not shown) [Example 106, 1-[(4-Oxotetrahydro-2H-pyran-3-yl)methyl]-6-(1H-pyrrolo[2,3-b]pyridin-5-yl)-1,3-dihydro-2H-imidazo[4,5-b]pyridin-2-one] | –
